# According to patent publication US5486516A, “Furopyrimidine derivatives” (DowElanco, priority 1993, dated 1996):
# Experiments:
# [1] = system: Pyricularia oryzae (rice blast); assay: whole plant or invertebrate; format: in vivo; conditions: foliar, read-out: RICE BLAST control rating
# [2] = system: Southern corn rootworm (Diabrotica undecimpuctata howardi Barber); assay: Mite/insect screen, corn rootworm; format: in vivo; conditions: Diabrotica, soil, read-out: CRW results (percent mortality); for mortality at 12 ppm: CRW rate 12.00 ppm; for mortality at 24 ppm: CRW rate 24.00 ppm
# Summary of the method: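 Five 2-3 instar larvae per cup were placed on sandy soil (15 g, with presoaked corn seed) treated 6–12 h earlier with 1 mL test solution, an emulsified acetone/alcohol formulation diluted in water. Cups kept at 23° C; mortality and phytotoxicity assessed as percent after standard exposures.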
# [3] = system: southern armyworm (Spodopetra eridania Cramer); assay: Mite/insect screen, Southern armyworm; format: in vivo; conditions: Spodoptera eridania, sprayed leaves, read-out: SAW results (percent mortality); for mortality at 200 ppm: rate 200 ppm; for mortality at 400 ppm: rate 400 ppm
# Summary of the method: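 Southern armyworm larvae placed in Petri dishes with two excised squash leaves that had been sprayed to runoff (10 psi) with emulsified compound and air-dried for 1 h. Mortality in percent recorded after a standard exposure period; formulation acetone/alcohol plus Toximul R and S, water-diluted.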
# [4] = system: Twospotted spider mites (Tetranychus urticae Koch); assay: Mite/insect screen, twospotted spider mites; format: in vivo; conditions: Tetranychus urticae, sprayed leaves, read-out: SM results (percent mortality); for mortality at 200 ppm: rate 200 ppm; for mortality at 400 ppm: rate 400 ppm
# Summary of the method: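 Percent mortality, along with phytotoxicity, was read after standard exposure periods. Beforehand, mites established on both surfaces of squash cotyledons received a runoff spray (10 psi) of water-diluted compound formulated in acetone/alcohol with sulfonate/nonionic emulsifiers.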
# [5] = system: melon aphids (Aphis gossvpii Glover); assay: Mite/insect screen, melon aphids; format: in vivo; conditions: Aphis, sprayed leaves, read-out: MA results (percent mortality); for mortality at 200 ppm: rate 200 ppm; for mortality at 400 ppm: rate 400 ppm
# Summary of the method: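 Percent mortality of melon aphids was assessed after standard exposure periods. Infested squash cotyledons had been sprayed on both leaf surfaces until runoff at 10 psi with water-diluted test solutions. Compounds were formulated in acetone/alcohol (50:50) containing emulsifiers.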
# [6] = system: Puccinia recondita tritici (leaf rust); assay: Plant pathology screen (Test 1), leaf rust on wheat; conditions: in Triticum aestivum, foliar, read-out: LEAF RUST control rating
# [7] = system: Pseudoperonospora cubensis (downy mildew); assay: Plant pathology screen (Test 1), downy mildew on squash; conditions: foliar, read-out: DOWN MDEW control rating
# [8] = system: Erysiphe graminis tritici (powdery mildew); assay: Plant pathology screen (Test 1), powdery mildew on wheat; conditions: Blumeria graminis, in Triticum aestivum, foliar, read-out: POWD MDEW control rating
# [9] = system: Botrytis cinerea (gray mold); assay: Plant pathology screen (Test 1), gray mold on grape berries; conditions: read-out: GRAY MOLD control rating
SMILES,pest or weed control at 400 µg/mL [1],mortality at 12 ppm [2],mortality at 24 ppm [2],mortality at 200 ppm [3],mortality at 400 ppm [3],mortality at 200 ppm [4],mortality at 400 ppm [4],mortality at 200 ppm [5],mortality at 400 ppm [5],pest or weed control at 400 µg/mL [6],pest or weed control at 400 µg/mL [7],pest or weed control at 400 µg/mL [8],pest or weed control at 400 µg/mL [9]
"Cc1oc2ncnc(NC(C)(C)Cc3ccccc3)c2c1C [Example 77, 5,6-dimethyl-N-[1,1-dimethyl-2-phenylethyl]furo[2,3-d]pyrimidin-4-amine]",90 to 100%,0%,0%,0%,0%,50%,90%,100%,80%,90 to 100%,90 to 100%,90 to 100%,0 to 19%
"Cc1oc2ncnc(Oc3cccc(C(F)(F)F)c3)c2c1C [Example 63, 5,6-dimethyl-4-[3-(trifluoromethyl)phenoxy]furo[2,3-d]pyrimidine]",0 to 19%,0%,0%,0%,0%,0%,50%,0%,80%,0 to 19%,20 to 89%,0 to 19%,0 to 19%
"COc1ccc(CCOc2ncnc3oc(C)cc23)cc1 [Example 40, 6-methyl-4-[2-(4-methoxyphenyl)ethoxy]furo[2,3-d]pyrimidine]",0 to 19%,0%,0%,0%,0%,0%,20%,0%,80%,90 to 100%,90 to 100%,20 to 89%,0 to 19%
"CCCCOc1ccc(CCOc2ncnc3oc(C)cc23)cc1 [Example 44, 4-[4-(4-butoxyphenyl)ethoxy]-6-methylfuro[2,3-d]pyrimidine]",0 to 19%,–,0%,–,0%,–,0%,–,0%,90 to 100%,20 to 89%,0 to 19%,0 to 19%
"Cc1oc2ncnc(OCCc3ccc(Cl)cc3)c2c1C [Example 53, 4-[2-(4-chlorophenyl)ethoxy]-5,6-dimethylfuro[2,3-d]pyrimidine]",20 to 89%,0%,0%,0%,0%,0%,30%,0%,60%,90 to 100%,0 to 19%,20 to 89%,0 to 19%
"Cc1oc2ncnc(OCCc3cccs3)c2c1C [Example 61, 5,6-dimethyl-4-[2-(2-thienyl)ethoxy]furo[2,3-d]pyrimidine]",20 to 89%,0%,0%,0%,0%,90%,0%,90%,0%,20 to 89%,90 to 100%,90 to 100%,0 to 19%
"Cc1ccccc1Oc1ncnc2oc(C)c(C)c12 [Example 29, 5,6-dimethyl-4-(2-methylphenoxy)furo[2,3-d]pyrimidine]",20 to 89%,0%,0%,0%,0%,0%,0%,0%,0%,20 to 89%,20 to 89%,20 to 89%,0 to 19%
